Experimental data published in PMC6934184, “Selective DNA-PKcs inhibition extends the therapeutic index of localized radiotherapy and chemotherapy” (The Journal of Clinical Investigation, 2019).

Biological target: T1, MAP4K1 (HPK1) (Homo sapiens, UniProt Q92918)
T1 construct: purchased Thermo Fisher Scientific (Life Technologies) SelectScreen
Assay: SelectScreen LanthaScreen
Type: binding
Conditions: read-out: % displacement
How it was run: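 SelectScreen broad panel; activity (Z'LYTE, Adapta) plus binding formats. ATP: Km app for CSF1R Z'LYTE; 10 for CAMK1 Adapta. Readout = % per kinase.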

T1 sequence (Q92918 whole entry): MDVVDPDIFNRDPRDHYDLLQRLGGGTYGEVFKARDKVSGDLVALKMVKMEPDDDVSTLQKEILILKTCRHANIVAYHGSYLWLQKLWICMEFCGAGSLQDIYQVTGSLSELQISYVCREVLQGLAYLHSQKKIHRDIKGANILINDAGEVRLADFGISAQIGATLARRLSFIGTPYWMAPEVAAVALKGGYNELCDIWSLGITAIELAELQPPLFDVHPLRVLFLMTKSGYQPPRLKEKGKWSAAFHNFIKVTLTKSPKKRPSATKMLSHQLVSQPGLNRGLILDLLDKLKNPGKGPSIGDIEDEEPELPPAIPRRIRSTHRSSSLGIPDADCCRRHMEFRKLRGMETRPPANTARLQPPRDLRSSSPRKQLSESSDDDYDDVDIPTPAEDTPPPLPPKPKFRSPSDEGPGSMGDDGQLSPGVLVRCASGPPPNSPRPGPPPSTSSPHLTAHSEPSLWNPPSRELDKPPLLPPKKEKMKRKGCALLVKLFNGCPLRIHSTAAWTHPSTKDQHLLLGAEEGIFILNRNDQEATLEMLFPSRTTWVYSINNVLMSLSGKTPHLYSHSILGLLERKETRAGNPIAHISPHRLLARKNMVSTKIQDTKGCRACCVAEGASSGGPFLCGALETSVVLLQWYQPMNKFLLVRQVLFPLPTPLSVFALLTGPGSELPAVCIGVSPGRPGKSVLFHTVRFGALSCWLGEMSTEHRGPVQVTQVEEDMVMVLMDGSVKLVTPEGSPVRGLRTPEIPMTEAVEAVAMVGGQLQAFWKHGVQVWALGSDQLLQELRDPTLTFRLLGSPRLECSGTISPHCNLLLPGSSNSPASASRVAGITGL

Question: How did the inhibition at 1 µM turn out when `CN(C(=O)CN1CCOCC1)c1ccc2sc3c(-c4cccc5c(=O)cc(N6CC7CCC(C6)O7)oc45)cccc3c2c1` [NU5455] was run?
Answer: 1.6%
